Experimental data taken from PubChem BioAssay AID588385 (NMMLSC, 2011).
Activity calls are given as the source filed them.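 Rule for the calls: active = EC50 at most 10 µM,% response shifting 30 points or more across doses, valid curve fit; inactive = the rest.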

Biological target: Cell division control protein 42 homolog (Homo sapiens) (UniProt P60953)
Test: inhibitors of wildtype Cdc42 GTP binding, SAR follow-up, biochemical, bead multiplex, flow cytometry, round 1 (AID 588385)
Settings: GST-Cdc42 wt beads, Bodipy-GTP binding; for % response (lower = inhibition): at 100 µM (top of the series)

Chain of Cell division control protein 42 homolog (Homo sapiens) (P60953 whole entry, looked up): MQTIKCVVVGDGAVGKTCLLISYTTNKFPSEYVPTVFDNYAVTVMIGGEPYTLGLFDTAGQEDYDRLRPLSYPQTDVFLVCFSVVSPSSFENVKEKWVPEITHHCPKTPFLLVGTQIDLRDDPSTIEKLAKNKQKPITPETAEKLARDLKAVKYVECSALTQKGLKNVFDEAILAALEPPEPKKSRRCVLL

SMILES: CC1(C)Cc2c(sc(NC(=O)NC(=O)c3ccccc3)c2C(=O)O)CO1
- % response (lower = inhibition): inactive

SMILES: CN1CCc2c(sc(NC(=O)Nc3ccc(F)cc3)c2C(=O)O)C1
- % response (lower = inhibition): inactive

SMILES: COC(=O)c1c(N)sc2c1CC(C)(C)OC2
- % response (lower = inhibition): inactive

SMILES: Cc1ccc(Nc2nc3sc4c(c3c(=O)o2)CCN(C)C4)cc1
- % response (lower = inhibition): inactive

SMILES: Cc1ccc(NC(=O)Nc2sc3c(c2C(=O)O)CCN(C)C3)cc1
- % response (lower = inhibition): inactive

SMILES: CCOC(=O)c1c(NC(=O)NC(C)(C)C)sc2c1CCN(C)C2
- % response (lower = inhibition): inactive

SMILES: CC1(C)CCc2sc(NC(=S)NC(=O)c3ccccc3)c(C(=O)O)c2C1
- EC50: 168 nM

SMILES: CC1(C)Cc2c(sc(NC(=O)Cc3ccccc3)c2C(=O)O)CO1
- % response (lower = inhibition): inactive

SMILES: COc1ccc(C(=O)NC(=S)Nc2sc3c(c2C(=O)O)CC(C)(C)OC3)cc1
- EC50: 501 nM

SMILES: CC1Cc2c(sc(NC(=S)NC(=O)c3ccccc3)c2C(=O)O)CO1 (stereo unspecified)
- EC50: 405 nM

SMILES: CCOC(=O)c1c(NC(=O)Nc2ccc(C)cc2)sc2c1CCN(C)C2
- % response (lower = inhibition): inactive

SMILES: CC1(C)Cc2c(sc(NC(=S)NC(=O)c3ccc(Br)cc3)c2C(=O)O)CO1
- EC50: 452 nM

SMILES: O=C(NC(=S)Nc1sc2c(c1C(=O)O)CCOC2)c1ccccc1
- EC50: 40 nM

SMILES: CC1(C)Cc2c(sc(NC(=S)NC(=O)c3ccccc3F)c2C(=O)O)CO1
- EC50: 80 nM

SMILES: CC1(C)Cc2c(sc(NC(=S)NC(=O)c3ccccc3Br)c2C(=O)O)CO1
- EC50: 91 nM

SMILES: CC1(C)Cc2c(sc(NC(=S)Nc3ccccc3)c2C(=O)O)CO1
- % response (lower = inhibition): inactive

SMILES: CCOC(=O)c1c(N)sc2ccccc12
- % response (lower = inhibition): inactive

SMILES: COc1cccc(C(=O)NC(=S)Nc2sc3c(c2C(=O)O)CC(C)(C)OC3)c1
- EC50: 82 nM

SMILES: CCOC(=O)c1c(NC(=S)Nc2ccccc2)sc2c1CC(C)(C)OC2
- % response (lower = inhibition): inactive

SMILES: CC(C)(C)OC(=O)c1c(NC(=S)NC(=O)c2ccccc2)sc2c1CCOC2
- % response (lower = inhibition): inactive

SMILES: CN1CCc2c(sc3nc(Nc4ccc(F)cc4)oc(=O)c23)C1
- % response (lower = inhibition): inactive

SMILES: CC1(C)Cc2c(sc(NC(=S)NC(=O)c3cccc(F)c3)c2C(=O)O)CO1
- EC50: 319 nM

SMILES: CC1(C)Cc2c(sc(NC(=S)NC(=O)c3cccc(Br)c3)c2C(=O)O)CO1
- % response (lower = inhibition): inactive

SMILES: CCOC(=O)c1c(NC(=S)NC(=O)c2ccccc2)sc2ccccc12
- % response (lower = inhibition): inactive

SMILES: COC(=O)c1c(NC(=S)NC(=O)c2ccccc2)sc2c1CC(C)(C)OC2
- % response (lower = inhibition): inactive

SMILES: CCOC(=O)c1c(NC(=O)Nc2ccc(F)cc2)sc2c1CCN(C)C2
- % response (lower = inhibition): inactive
